Test results reported in patent publication US20250304578A1, “NITROGEN-CONTAINING FUSED HETEROCYCLIC COMPOUNDS OF N-SULFONAMIDE AND USE THEREOF” (NUTSHELL THERAPEUTICS (SHANGHAI) CO., LTD., priority 2023, published 2025).
Like-named read-outs stand apart in the source and are kept apart here.

Columns and labels:
[1] = Metabolic stability in liver microsomes; type: in vitro ADME; conditions: for microsomal CLint at 1 μM: read-out: In vitro Clint (μL/min/mg protein); for half-life at 1 μM: read-out: In vitro t1/2
Protocol: The test compound and the positive control compound (dextromethorphan as a control compound) were dissolved respectively in DMSO to prepare a stock solution with a concentration of 10 mM, and the above stock solution was diluted into 200 μM working solution with DMSO. 8.709 g of potassium hydrogen phosphate (K2HPO4) was dissolved in 950 mL of water, and the pH value of the solution was adjusted to 7.4 with hydrochloric acid, and then the volume was adjusted to 1000 mL with water. After filtration using a 0.22 μm filter membrane, the mixture was stored in a 4° C. refrigerator for later use. After liver microsomes of various species (protein concentration of 20 mg/mL) were thawed in a 37° C. water bath, the liver microsomes were diluted with a phosphate buffer respectively to obtain a liver microsome working solution with protein concentration of 0.629 mg/mL. 5 mM NADPH solution was prepared using the above phosphate buffer for later use. 1 mg/mL stock solution of terfenadine/tolbutamide was prepared with DMSO and then diluted with a 50% methanol/50% acetonitrile mixed solution to a reaction stop solution containing 5/10 ng/mL (terfenadine/tolbutamide) internal standard.
238.5 μL of liver microsome working solutions of various species were added to a 1.1 mL microtube, and 1.5 μL of the test compound working solution or the positive control compound (dextromethorphan) working solution (200 μM) was added respectively, mixed well, and pre-incubated in a 37° C. water bath for 5 minutes. 60 μL of NADPH solution was added to start the reaction, and after mixing well, at the time points of 0, 5, 15, 30, and 60 minutes after the reaction, 30 μL of the reaction mixture was respectively pipetted and added to 300 μL of the reaction stop solution. Samples from all time points were vortexed vigorously for 1 minute and centrifuged at 4000 rpm for 15 minutes at 4° C. 100 μL of the supernatant was added to 100 μL of pure water and mixed well for LC-MS/MS analysis.
The slope (ke) was determined by plotting the natural logarithm of the percentage of compound remaining against time, and the Tin and intrinsic clearance (CLint) were calculated based on the first-order kinetic formula: […]
The compound remaining rate is calculated as follows:
Intrinsic clearance CLint (μL/min/mg protein)=0.693*1000/T1/2/protein concentration (0.5 mg protein/mL)

NUGC-3 cells = assay: Anti-proliferation effect on NUGC-3 cells (Cell Counting Kit-8); type: cell-based; conditions: Homo sapiens, NUGC-3, 120 h; 5 days of treatment
Protocol: Cell line NUGC-3 (JCRB, JCRB0822) was cultured in RPMI 1640 (Invitrogen, 11875-085) medium supplemented with 10% (v/v) fetal bovine serum (BI, 04-002-1A), according to the standard instructions of the American Type Culture Collection. The cell line was authenticated by short tandem repeat profiling.
In the proliferation assay, 1000 NUGC-3 cells were seeded in a 96-well flat clear bottom, TC-treated plate (Corning, 3903) in 200 μL of medium per well, and allowed to recover overnight in culture medium. Compounds were added with increasing concentration, with DMSO treatment serving as a […] control. After 5 days of treatment, the plate was equilibrated to room temperature for 30 minutes, and the number of living cells was measured by the addition of the Cell Counting Kit-8 reagent (MCE, HY-K0301). Absorbance was measured on an Enspire (Perkin elme). The relative viability of each group was presented as the percentage change relative to the […] control group and then fit to a four-parameter logit non-linear curve using the program XLFit (IDBS)

[2] = molecular target: voltage-gated potassium channel hERG (Homo sapiens (Human), UniProt Q12809); assay: hERG potassium channel inhibitory activity test (manual patch clamp, HEK293); type: cell-based; conditions: HEK293 cells stably expressing hERG
voltage-gated potassium channel hERG, sequence (Q12809 whole entry): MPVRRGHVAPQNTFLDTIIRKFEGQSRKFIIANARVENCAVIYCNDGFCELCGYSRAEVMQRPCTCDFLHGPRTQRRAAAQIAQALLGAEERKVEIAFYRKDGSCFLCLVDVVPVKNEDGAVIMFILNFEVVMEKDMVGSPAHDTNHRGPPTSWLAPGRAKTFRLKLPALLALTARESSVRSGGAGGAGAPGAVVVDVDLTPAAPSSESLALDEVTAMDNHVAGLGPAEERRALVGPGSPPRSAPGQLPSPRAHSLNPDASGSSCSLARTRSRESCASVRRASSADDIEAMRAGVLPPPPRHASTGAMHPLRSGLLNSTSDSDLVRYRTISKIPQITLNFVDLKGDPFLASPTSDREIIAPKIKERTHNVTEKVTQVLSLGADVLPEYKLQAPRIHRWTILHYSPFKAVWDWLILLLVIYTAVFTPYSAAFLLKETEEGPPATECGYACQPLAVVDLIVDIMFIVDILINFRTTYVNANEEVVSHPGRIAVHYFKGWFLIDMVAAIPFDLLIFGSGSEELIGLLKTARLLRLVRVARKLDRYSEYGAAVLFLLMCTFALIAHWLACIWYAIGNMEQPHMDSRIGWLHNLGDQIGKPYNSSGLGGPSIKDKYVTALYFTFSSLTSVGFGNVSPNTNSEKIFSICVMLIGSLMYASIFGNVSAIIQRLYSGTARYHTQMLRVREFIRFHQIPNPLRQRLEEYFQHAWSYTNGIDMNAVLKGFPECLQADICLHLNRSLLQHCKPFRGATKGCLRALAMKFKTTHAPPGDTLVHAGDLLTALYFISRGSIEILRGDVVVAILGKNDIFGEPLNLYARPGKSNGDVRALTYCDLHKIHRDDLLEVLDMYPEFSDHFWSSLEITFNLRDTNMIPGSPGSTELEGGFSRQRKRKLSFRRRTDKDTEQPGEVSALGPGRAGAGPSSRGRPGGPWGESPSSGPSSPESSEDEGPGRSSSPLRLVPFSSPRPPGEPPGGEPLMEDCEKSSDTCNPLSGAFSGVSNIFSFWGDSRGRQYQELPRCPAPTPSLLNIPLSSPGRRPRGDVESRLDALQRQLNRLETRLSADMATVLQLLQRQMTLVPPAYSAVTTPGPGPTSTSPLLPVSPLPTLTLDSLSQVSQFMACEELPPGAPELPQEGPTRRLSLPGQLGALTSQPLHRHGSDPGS
Protocol: This experiment was conducted to detect the effect of compounds in five concentrations on hERG channel current, obtaining a dose-effect curve and calculating the IC50.
Cell line and cell culture: HEK293 cell line stably expressing the hERG ion channel (Cat. No.: K1236) was purchased from Invitrogen Company. […] When the cell density grows to 40% to 80% of the bottom area of the culture dish, the cells were digested with trypsin and passaged three times per week. Prior to the experiment, cells were cultured in a 3.5 cm culture dish at a density of 5×10^5, induced with 1 μg/mL doxycycline for 48 hours, and then the cells were digested and seeded on glass slides for subsequent manual patch clamp experiments. […]
Experimental procedure: A coverslip loaded with HEK293 cells in a culture dish was placed in the perfusion chamber of the microscope stage. […] The hERG current used to detect the test compound was continuously recorded for 120 seconds before administration to evaluate the stability of the hERG current generated by the test cells. […] Test of the inhibitory effect of the test compound on hERG current: First, the hERG current measured in the extracellular fluid containing 0.1% DMSO was used as the detection baseline. […] After each perfusion was completed, approximately 5 minutes were waited to allow the compounds to fully act on the cells, and hERG currents were synchronously recorded.

CYP2C19 = CYP2C19 (Homo sapiens (Human), UniProt P33261); assay: Inhibitory activity on CYP isoenzymes at a single concentration; type: in vitro ADME; conditions: pH 7.4, probe mephenytoin; final compound concentration 10 μM; human liver microsomes; substrate mephenytoin; NI: no inhibition; read-out: Inhibition rate (%) CYP2C19
CYP2C19, sequence (P33261 whole entry): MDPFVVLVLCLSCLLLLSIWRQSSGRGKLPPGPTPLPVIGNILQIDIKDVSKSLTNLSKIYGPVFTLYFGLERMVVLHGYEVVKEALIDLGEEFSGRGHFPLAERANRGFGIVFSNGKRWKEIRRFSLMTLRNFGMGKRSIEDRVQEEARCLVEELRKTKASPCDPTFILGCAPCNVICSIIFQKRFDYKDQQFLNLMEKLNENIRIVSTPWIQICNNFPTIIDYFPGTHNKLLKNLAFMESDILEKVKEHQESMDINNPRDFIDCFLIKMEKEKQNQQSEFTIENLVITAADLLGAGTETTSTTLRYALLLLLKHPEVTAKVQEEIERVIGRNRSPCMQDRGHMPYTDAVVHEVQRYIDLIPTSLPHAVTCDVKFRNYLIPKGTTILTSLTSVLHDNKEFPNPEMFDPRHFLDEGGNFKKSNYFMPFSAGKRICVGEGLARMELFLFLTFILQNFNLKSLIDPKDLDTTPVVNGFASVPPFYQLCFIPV
Source text: The buffer was filtered through a 0.45 μm filter.

[3] = In vivo pharmacokinetic study in rats; conditions: male, rat, plasma, SD rats
Protocol: (§1) Intravenous injection: 40% HP-β-CD in water; intragastric administration: 0.2% HPC+0.5% Tween80 in water.
6 male rats. Fasting treatment was performed in the evening before the administration, with free access to water. During the experiment, the rats were allowed to eat and drink freely, and administered by intravenous injection or gavage. After administration, the animal status was observed, and abnormal behaviors were recorded. Blood was collected via jugular vein puncture at 0.0833, 0.25, 1, 2, 4, 8, and 24 hours after intravenous injection; Blood was collected via jugular vein puncture at 0.25, 0.5, 1, 2, 4, 6, 8, and 24 hours after intragastric administration. 50 μL of plasma sample was taken and added with 500 μL of acetonitrile (containing dexamethasone as an internal standard) to precipitate proteins. The mixture was centrifuged at 4° C. and 4000 rpm for 20 minutes, and 300 μL of the supernatant was taken and mixed with 300 μL of Watsons aqueous solution in a 96-well plate. Then, 5 μL of the sample was taken for LC-MS/MS detection.
(§2) The standard curve was established using the internal standard method, with the theoretical standard curve concentration as the X-axis and the peak area ratio as the Y-axis (peak area of the test compound/peak area of internal standard). Linear regression method (weighting factor 1/X2) was used, R^2>0.9900. Unknown samples were calculated by the standard curve. Pharmacokinetic parameters were calculated by the non-compartmental analysis model of WinNonlin 8.2 software and were presented in a report, including Clint, Cmax, AUC, etc.

[4] = In vivo pharmacokinetic study in mice; conditions: male, mouse, plasma, CD-1 mice
Protocol: as §1
6 male mice. Fasting treatment was performed in the evening before the administration, with free access to water. During the experiment, the mice were allowed to eat and drink freely, and administered by intravenous injection or gavage. After administration, the animal status was observed, and abnormal behaviors were recorded. Blood was collected from the orbit at 0.0833, 0.25, 1, 2, 4, 8, and 24 hours after intravenous injection, and at 0.25, 0.5, 1, 2, 4, 6, 8, and 24 hours after intragastric administration. 20 μL of plasma sample was taken and added with 250 μL of acetonitrile (containing dexamethasone as an internal standard) to precipitate proteins. The mixture was centrifuged at 4° C. and 4000 rpm for 20 minutes, and 180 μL of the supernatant was taken and mixed with 180 μL of an aqueous solution containing 0.1% formic acid in a 96-well plate. Then, 10 μL of the sample was taken for LC-MS/MS detection.
as §2

[5] = ICR/CD-1, pH 7.4, Mouse liver microsomes
[6] = Sprague Dawley, pH 7.4, Rat liver microsomes

COc1nc(C(=O)NS(C)(=O)=O)ccc1NCC#Cc1cc2c(N[C@@H]3CCN(C)C[C@@H]3F)cccn2c1CC(F)(F)F [Cpd-1, 5-((3-(8-(((3S,4R)-3-Fluoro-1-methylpiperidin-4-yl)amino)-3-(2,2,2-trifluoroethyl)indolizin-2-yl)prop-2-yn-1-yl)amino)-6-methoxy-N-(methylsulfonyl)picolinamide]
microsomal CLint at 1 μM [1, 5]: 13.7 µL/min/mg | half-life at 1 μM [1, 5]: 1.2 h | microsomal CLint at 1 μM [1, 6]: 35 µL/min/mg | half-life at 1 μM [1, 6]: 0.467 h | microsomal CLint at 1 μM ([1]; pH 7.4, Human liver microsomes): 7.3 µL/min/mg | half-life at 1 μM ([1]; pH 7.4, Human liver microsomes): 2.27 h | IC50 (NUGC-3 cells): 100 nM | IC50 [2]: > 30000 nM

[2H]C([2H])([2H])Oc1nc(C(=O)NS(C)(=O)=O)ccc1NCC#Cc1cc2c(N[C@@H]3CCN(C)C[C@@H]3F)cccn2c1CC(F)(F)F [Cpd-2, 5-((3-(8-(((3S,4R)-3-Fluoro-1-methylpiperidin-4-yl)amino)-3-(2,2,2-trifluoroethyl)indolizin-2-yl)prop-2-yn-1-yl)amino)-6-(methoxy-d3)-N-(methylsulfonyl)picolinamide]
inhibition at 10 min, 10 µM (CYP2C19): 8.4% | AUC(0-t) ([3]; IV 1 mg/kg): 8.4 µM·h | AUC(0-t) ([3]; PO 10 mg/kg): 58.4 µM·h | Cmax ([3]; PO 10 mg/kg): 8.9 µM | microsomal CLint at 1 μM [1, 5]: 12.6 µL/min/mg | half-life at 1 μM [1, 5]: 1.83 h | microsomal CLint at 1 μM [1, 6]: 11.7 µL/min/mg | half-life at 1 μM [1, 6]: 1.98 h | microsomal CLint at 1 μM ([1]; pH 7.4, Human liver microsomes): < 5.4 µL/min/mg | half-life at 1 μM ([1]; pH 7.4, Human liver microsomes): > 4.27 h | IC50 (NUGC-3 cells): 58 nM | IC50 [2]: > 30000 nM | AUC(0-t) ([4]; IV 1 mg/kg): 1.7 µM·h | AUC(0-t) ([4]; PO 10 mg/kg): 15.7 µM·h | Cmax ([4]; PO 10 mg/kg): 5.9 µM
